Measurements as given in patent US10472364B2 (Calithera Biosciences, Inc., priority 2016, dated 2019).

Legend:
[1] = biological target: recombinant CD73 (Homo sapiens (Human), UniProt P21589); test: Inhibition of the CD73 enzyme in vitro (soluble recombinant CD73, Malachite Green); type: biochemical; conditions: recombinant CD73 0.5 nM, AMP 50 μM, 30 minutes at room temperature
Method: The concentration of inorganic phosphate was determined using a phosphate standard curve.

[2] = biological target: endogenous, cell-bound CD73 on SK-MEL-28 cells (Homo sapiens (Human), UniProt P21589); test: Inhibition of endogenous, cell-bound CD73 enzyme activity in SK-MEL-28 cells (Malachite Green); type: cell-based; conditions: 100 μM AMP, 30 minutes at room temperature
Method: The day before the experiment, 5000 cells were plated per well in a 96-well plate. Cells were washed twice with […] reaction buffer (20 mM HEPES, pH 7.4, 125 mM NaCl, 1 mM KCl, 2 mM MgCl2, 10 mM glucose) to remove residual inorganic phosphate. After washing, assays contained serial dilutions of test compounds and 100 μM of AMP in a total volume of 200 μL reaction buffer, with a final DMSO concentration≤0.5%. After 30 minutes at room temperature, supernatant was removed from the cells. […] The concentration of inorganic phosphate was determined using a phosphate standard curve to determine IC50.

Chain of endogenous, cell-bound CD73 on SK-MEL-28 cells (P21589 27-574): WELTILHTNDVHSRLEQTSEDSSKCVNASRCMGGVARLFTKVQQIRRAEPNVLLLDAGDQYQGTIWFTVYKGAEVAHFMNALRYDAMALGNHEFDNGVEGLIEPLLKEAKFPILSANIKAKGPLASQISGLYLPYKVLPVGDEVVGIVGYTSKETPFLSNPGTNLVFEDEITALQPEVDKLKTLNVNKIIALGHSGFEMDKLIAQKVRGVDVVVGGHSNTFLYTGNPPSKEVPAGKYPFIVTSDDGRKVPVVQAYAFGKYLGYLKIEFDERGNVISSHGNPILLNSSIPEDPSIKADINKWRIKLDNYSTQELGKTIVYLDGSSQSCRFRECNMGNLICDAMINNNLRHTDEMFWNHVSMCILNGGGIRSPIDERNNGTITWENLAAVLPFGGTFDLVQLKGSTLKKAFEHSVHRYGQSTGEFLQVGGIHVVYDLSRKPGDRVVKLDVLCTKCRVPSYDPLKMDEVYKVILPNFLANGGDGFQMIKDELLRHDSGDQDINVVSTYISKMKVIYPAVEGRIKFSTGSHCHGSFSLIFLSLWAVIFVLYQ
Chain of recombinant CD73 (P21589 27-547): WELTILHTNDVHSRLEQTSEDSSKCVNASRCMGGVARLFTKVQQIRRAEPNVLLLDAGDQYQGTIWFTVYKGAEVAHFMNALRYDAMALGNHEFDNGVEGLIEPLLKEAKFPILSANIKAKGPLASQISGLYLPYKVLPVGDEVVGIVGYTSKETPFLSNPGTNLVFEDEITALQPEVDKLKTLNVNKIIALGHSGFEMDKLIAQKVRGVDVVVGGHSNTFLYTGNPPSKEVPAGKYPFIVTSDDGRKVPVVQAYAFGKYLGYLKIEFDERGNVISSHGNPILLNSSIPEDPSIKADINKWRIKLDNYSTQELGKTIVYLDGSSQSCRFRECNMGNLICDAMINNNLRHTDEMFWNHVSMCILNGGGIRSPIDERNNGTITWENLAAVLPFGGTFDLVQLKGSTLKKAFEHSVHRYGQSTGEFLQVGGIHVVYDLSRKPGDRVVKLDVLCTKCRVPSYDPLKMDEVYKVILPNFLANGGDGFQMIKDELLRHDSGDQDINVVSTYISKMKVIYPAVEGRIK

| Structure (SMILES) | IC50 [1] | IC50 [2] |
| --- | --- | --- |
| COC(=O)c1ccc(CC(OC[C@H]2O[C@@H](n3cnc4c(N)nc(Cl)nc43)[C@@H](F)[C@@H]2O)(C(=O)O)C(=O)O)cc1 [compound 91, 2-(((2R,3R,4S,5R)-5-(6-amino-2-chloro-9H-purin-9-yl)-4-fluoro-3-hydroxytetrahydrofuran-2-yl)methoxy)-2-(4-(methoxycarbonyl)benzyl)malonic acid] | 0.322 µM |  |
| Nc1nc(Cl)nc2c1ncn2[C@@H]1O[C@H](COC(Cc2ccc(C(=O)O)cc2)(C(=O)O)C(=O)O)[C@@H](O)[C@@H]1F [compound 7, 2-(((2R,3R,4S,5R)-5-(6-amino-2-chloro-9H-purin-9-yl)-4-fluoro-3-hydroxytetrahydro-furan-2-yl)methoxy)-2-(4-carboxybenzyl)-malonic acid] | 0.121 µM | 0.257 µM |
| Cc1cn([C@H]2C[C@H](O)[C@@H](COC(C(=O)O)C(=O)O)O2)c(=O)[nH]c1=O [compound 14, 2-(((2R,3S,5R)-3-hydroxy-5-(5-methyl-2,4-dioxo-3,4-dihydropyrimidin-1(2H)-yl)tetrahydrofuran-2-yl)methoxy)malonic acid] | > 50 µM |  |
| Nc1nc(Cl)nc2c1ncn2[C@@H]1O[C@H](COC(Cc2ccccc2)(C(=O)O)C(=O)O)[C@@H](O)[C@@H]1F [compound 6, 2-(((2R,3R,4S,5R)-5-(6-amino-2-chloro-9H-purin-9-yl)-4-fluoro-3-hydroxytetrahydro-furan-2-yl)methoxy)-2-benzylmalonic acid] |  | 0.489 µM |
| N#Cc1cccc(CC(OC[C@H]2O[C@@H](n3cnc4c(N)nc(N=[N+]=[N-])nc43)[C@@H](F)[C@@H]2O)(C(=O)O)C(=O)O)c1 [compound 40, 2-(((2R,3R,4S,5R)-5-(6-amino-2-azido-9H-purin-9-yl)-4-fluoro-3-hydroxytetrahydrofuran-2-yl)methoxy)-2-(3-cyanobenzyl)malonic acid] |  | 2.41 µM |
| Nc1nc(Cl)nc2c1ncn2[C@@H]1O[C@H](COC(Cc2ccc(C(=O)O)s2)(C(=O)O)C(=O)O)[C@@H](O)[C@@H]1F [compound 77, 2-(((2R,3R,4S,5R)-5-(6-amino-2-chloro-9H-purin-9-yl)-4-fluoro-3-hydroxytetrahydro-furan-2-yl)methoxy)-2-((5-carboxythiophen-2-yl)methyl)malonic acid] |  | 1.33 µM |
| N#Cc1ccc(CC(OC[C@H]2O[C@@H](n3cnc4c(N)nc(Cl)nc43)[C@@H](F)[C@@H]2O)(C(=O)O)C(=O)O)cc1 [compound 34] |  | 0.153 µM |
| Nc1nc(Cl)nc2c1ncn2[C@@H]1O[C@H](COC(Cc2csc(C(=O)O)c2)(C(=O)O)C(=O)O)[C@@H](O)[C@@H]1F [compound 76, 2-(((2R,3R,4S,5R)-5-(6-amino-2-chloro-9H-purin-9-yl)-4-fluoro-3-hydroxytetrahydro-furan-2-yl)methoxy)-2-((5-carboxythiophen-3-yl)methyl)malonic acid] |  | 0.305 µM |
| Nc1nc(Cl)nc2c1ncn2[C@@H]1O[C@H](COC(Cc2cnn(Cc3ccccc3)c2)(C(=O)O)C(=O)O)[C@@H](O)[C@@H]1F [compound 63, 2-(((2R,3R,4S,5R)-5-(6-amino-2-chloro-9H-purin-9-yl)-4-fluoro-3-hydroxytetrahydro-furan-2-yl)methoxy)-2-((1-benzyl-1H-pyrazol-4-yl)methyl)malonic acid] |  | 2.01 µM |
| CS(=O)(=O)c1ccc(CC(OC[C@H]2O[C@@H](n3cnc4c(N)nc(Cl)nc43)[C@@H](F)[C@@H]2O)(C(=O)O)C(=O)O)cc1 [compound 21, 2-(((2R,3R,4S,5R)-5-(6-amino-2-chloro-9H-purin-9-yl)-4-fluoro-3-hydroxytetrahydrofuran-2-yl)methoxy)-2-(4-(methylsulfonyl)benzyl)malonic acid] |  | 0.51 µM |
| Nc1nc(Cl)nc2c1ncn2[C@@H]1O[C@H](COC(Cc2cccc(-c3nnn[nH]3)c2)(C(=O)O)C(=O)O)[C@@H](O)[C@@H]1F [compound 53, 2-(3-(1H-tetrazol-5-yl)benzyl)-2-(((2R,3R,4S,5R)-5-(6-amino-2-chloro-9H-purin-9-yl)-4-fluoro-3-hydroxytetrahydrofuran-2-yl)methoxy)malonic acid] |  | 2.6 µM |
| CN(C)C(=O)c1cccc(CC(OC[C@H]2O[C@@H](n3cnc4c(N)nc(Cl)nc43)[C@@H](F)[C@@H]2O)(C(=O)O)C(=O)O)c1 [compound 22] |  | 1.14 µM |
| Nc1nc(Cl)nc2c1ncn2[C@@H]1O[C@H](COC(Cc2cccc(OC(F)(F)F)c2)(C(=O)O)C(=O)O)[C@@H](O)[C@@H]1F [compound 15, 2-(((2R,3R,4S,5R)-5-(6-amino-2-chloro-9H-purin-9-yl)-4-fluoro-3-hydroxytetrahydrofuran-2-yl)methoxy)-2-(3-(trifluoromethoxy)benzyl)malonic acid] |  | 1.58 µM |
| Nc1nc(Cl)nc2c1ncn2[C@@H]1O[C@H](COC(Cc2ccc(C(=O)O)c(F)c2)(C(=O)O)C(=O)O)[C@@H](O)[C@@H]1F [compound 58, 2-(((2R,3R,4S,5R)-5-(6-amino-2-chloro-9H-purin-9-yl)-4-fluoro-3-hydroxytetrahydro-furan-2-yl)methoxy)-2-(4-carboxy-3-fluorobenzyl)malonic acid] |  | 0.853 µM |
| Nc1nc(Cl)nc2c1ncn2[C@@H]1O[C@H](COC(Cc2ccc(OC(F)(F)F)cc2)(C(=O)O)C(=O)O)[C@@H](O)[C@@H]1F [compound 36] |  | 0.197 µM |
| COC(=O)C(Cc1ccc(-c2ccccc2)cc1)(OC[C@H]1O[C@@H](n2cnc3c(N)nc(Cl)nc32)[C@@H](F)[C@@H]1O)C(=O)O (single isomer, unassigned) [compound 81] |  | 2.11 µM |
| Cn1nc(CC(OC[C@H]2O[C@@H](n3cnc4c(N)nc(Cl)nc43)[C@@H](F)[C@@H]2O)(C(=O)O)C(=O)O)cc1C(=O)O [compound 73, 2-(((2R,3R,4S,5R)-5-(6-amino-2-chloro-9H-purin-9-yl)-4-fluoro-3-hydroxytetrahydrofuran-2-yl)methoxy)-2-((5-carboxy-1-methyl-1H-pyrazol-3-yl)methyl)malonic acid] | 8.61 µM | 1.24 µM |
| [N-]=[N+]=Nc1nc(N)c2ncn([C@@H]3O[C@H](COC(Cc4cccc(-c5nnn[nH]5)c4)(C(=O)O)C(=O)O)[C@@H](O)[C@@H]3F)c2n1 [compound 43] |  | 9.92 µM |
| Nc1nc(Cl)nc2c1ncn2[C@@H]1O[C@H](COC(Cc2ccsc2)(C(=O)O)C(=O)O)[C@@H](O)[C@@H]1F [compound 23] |  | 0.48 µM |
| Nc1nc(Cl)nc2c1ncn2[C@@H]1O[C@H](COC(CCCCO)(C(=O)O)C(=O)O)[C@@H](O)[C@@H]1F [compound 18, 2-(((2R,3R,4S,5R)-5-(6-amino-2-chloro-9H-purin-9-yl)-4-fluoro-3-hydroxytetrahydrofuran-2-yl)methoxy)-2-(4-hydroxybutyl)malonic acid] |  | 6.32 µM |
| Nc1nc(Cl)nc2c1ncn2[C@@H]1O[C@H](COC(CC(=O)O)(C(=O)O)C(=O)O)[C@@H](O)[C@@H]1F [compound 19, 1-(((2R,3R,4S,5R)-5-(6-amino-2-chloro-9H-purin-9-yl)-4-fluoro-3-hydroxytetrahydrofuran-2-yl)methoxy)ethane-1,1,2-tricarboxylic acid] |  | 5.84 µM |
